Consider 14 compounds from ChEMBL document CHEMBL1201862, “PubChem BioAssay data set” (2004).

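Protocol summary: plate cells (96-well), add compound at 5 concentrations, incubate 48 h, interpolate endpoints linearly. Here, GI50 denotes the concentration required for 50% inhibition of growth.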 Calls of active or inactive are those of the source. Cut-off read from the data, not from the text of the source: active = GI50 up to about 1.1 µM and inactive = higher.

What is called GI50 is the concentration at which growth is held to half of that of the control.

Test systems include A498; RPMI-8226; HCT-15; NCI-H522; HOP-92; SK-MEL-28; A549; SW-620; SNB-75; CCRF-CEM; OVCAR-3; HT-29; EKVX; SR; SNB-19; HCT-116.
What all share (assay): DTP human tumour cell line panel, 48 h

As to `Cc1ccc(/C=C/C(=O)c2sc(-n3nc(-c4ccccc4)cc3-c3ccccc3)nc2C)cc1`, the GI50 was > 100 µM (inactive) with A498; > 100 µM (inactive) in the assay on RPMI-8226; 57.7 µM in the assay with HCT-15; 87.5 µM (inactive) with NCI-H522; > 100 µM (inactive) in the assay on HOP-92; > 100 µM (inactive) in the assay with SK-MEL-28. Moreover, the GI50 in the assay with A549 is > 100 µM (inactive); with SW-620, > 100 µM (inactive); in the assay on SNB-75 it was 4.26 µM (inactive); with CCRF-CEM, > 100 µM (inactive); in the assay on OVCAR-3, > 100 µM (inactive); with HT-29 it was 55 µM (inactive). Further, the GI50 with EKVX is 34.8 µM (inactive).

For `O=C(NCCOC(=O)CCCCCCCCC(=O)OCCNC(=O)NC(=O)c1cn(Cc2ccccc2)c(=O)[nH]c1=O)NC(=O)c1cn(Cc2ccccc2)c(=O)[nH]c1=O`, the GI50 was > 100 µM (inactive) with A498; > 100 µM (inactive) with RPMI-8226; greater than 100 µM with HCT-15; > 100 µM (inactive) in the assay with NCI-H522; > 100 µM (inactive) with SK-MEL-28; > 100 µM (inactive) with A549. Besides, the GI50 with SW-620, in the assay on SNB-75, in the assay on SR, with SNB-19, in the assay on OVCAR-3 and with HT-29 was > 100 µM (inactive) throughout. Further, the GI50 in the assay with HCT-116 and in the assay on EKVX was > 100 µM (inactive) in each case.

`Nc1nc(=O)n(C2CC(O)C(O)C(CO)O2)cc1F` (configuration not stated): the GI50 in the assay with A498 is > 100 µM (inactive); with RPMI-8226, > 100 µM (inactive); with HCT-15, greater than 100 µM; in the assay with NCI-H522, > 100 µM (inactive); with SK-MEL-28 it was > 100 µM (inactive); in the assay with A549, > 100 µM (inactive). The GI50 with SW-620, in the assay with SNB-75, in the assay on SNB-19, in the assay with CCRF-CEM, in the assay on OVCAR-3 and with HT-29 was > 100 µM (inactive) in each case. Besides, the GI50 in the assay with HCT-116 and in the assay on EKVX was > 100 µM (inactive) throughout.

As for `N#Cc1ccccc1NC(=O)C(=O)C(C(=O)c1ccccc1-c1ccccc1)C1OC(=O)c2ccccc21` (configuration not stated), the GI50 with A498 is 25.4 µM (inactive); with RPMI-8226, 11.7 µM (inactive); with NCI-H522, 7.73 µM (inactive); with HOP-92, 20 µM (inactive); in the assay on SK-MEL-28, 18.2 µM (inactive); in the assay on A549, > 100 µM (inactive). Also, the GI50 with SW-620 is 29 µM (inactive); in the assay on SNB-75, 14.6 µM (inactive); in the assay with CCRF-CEM, 18.4 µM (inactive); in the assay on OVCAR-3, 15.8 µM (inactive); with HT-29 it was 33.3 µM (inactive); with HCT-116 it was 11 µM (inactive). In the assay on EKVX, the GI50 was 18.5 µM (inactive).

In the case of `N#Cc1c(C(N)=O)ncn1Cc1ccccc1`, the GI50 in the assay with A498 was > 100 µM (inactive); with RPMI-8226, > 100 µM (inactive); in the assay with HCT-15, greater than 100 µM; in the assay with NCI-H522, > 100 µM (inactive); in the assay with HOP-92, > 100 µM (inactive); in the assay with A549, > 100 µM (inactive). The GI50 in the assay with SW-620, in the assay on SNB-75, in the assay with SNB-19, in the assay with CCRF-CEM, in the assay with OVCAR-3 and in the assay on HT-29 was > 100 µM (inactive) in each case. Moreover, the GI50 in the assay with HCT-116 and in the assay on EKVX was > 100 µM (inactive) each time.

Regarding `COC(=O)c1ncc2c(=O)[nH]c3ccccc3c2c1C(=O)OC`, the GI50 is > 100 µM (inactive) with A498; > 100 µM (inactive) in the assay with RPMI-8226; greater than 100 µM with HCT-15; > 100 µM (inactive) in the assay with HOP-92; > 100 µM (inactive) in the assay with SK-MEL-28; > 100 µM (inactive) in the assay with A549. Besides, the GI50 in the assay on SW-620, with SNB-75, with SR, with SNB-19, in the assay on CCRF-CEM and with OVCAR-3 was > 100 µM (inactive) throughout. For the same compound, the GI50 in the assay with HT-29, in the assay with HCT-116 and in the assay with EKVX was > 100 µM (inactive) each time.

Consider `C[n+]1c2ccccc2c(/C=N\NS(=O)(=O)c2ccc(Cl)cc2)c2ccccc21`, for which the GI50 is 35.6 µM (inactive) with A498; 42.6 µM (inactive) in the assay with RPMI-8226; 35.9 µM in the assay on HCT-15; 46.8 µM (inactive) in the assay on NCI-H522; 48.8 µM (inactive) in the assay on HOP-92; 94.8 µM (inactive) in the assay on SK-MEL-28. Also, the GI50 with A549 is 23 µM (inactive); with SW-620, 39.5 µM (inactive); with SNB-75, 39.4 µM (inactive); with SNB-19, 59.2 µM (inactive); in the assay on CCRF-CEM, 15.1 µM (inactive); with OVCAR-3, 41.8 µM (inactive). For the same compound, the GI50 with HT-29 is 34 µM (inactive); in the assay on HCT-116, 33.7 µM (inactive); in the assay on EKVX it was > 100 µM (inactive).

As to `CCOC(=O)NC(=O)c1cn(CCCOC(=O)CCCCCCCCC(=O)OCCCn2cc(C(=O)NC(=O)OCC)c(=O)[nH]c2=O)c(=O)[nH]c1=O`, the GI50 is 21.7 µM (inactive) in the assay on A498; 5.22 µM (inactive) in the assay with RPMI-8226; 19.5 µM in the assay on HCT-15; 16.4 µM (inactive) with SK-MEL-28; 55.6 µM (inactive) in the assay with A549; 15 µM (inactive) in the assay on SW-620. Besides, the GI50 was 32.5 µM (inactive) in the assay on SNB-75; 22.3 µM (inactive) with SNB-19; 3.47 µM (inactive) in the assay with CCRF-CEM; 15.8 µM (inactive) in the assay with OVCAR-3; 34.8 µM (inactive) in the assay with HT-29; 24.2 µM (inactive) in the assay on HCT-116. In addition, in the assay with EKVX, the GI50 was 38.1 µM (inactive).

Regarding `CCOP1(=O)C=C(C)C(=C(Cl)Cl)C(C)=C1` (configuration not stated), the GI50 with A498 is 19.2 µM (inactive); with RPMI-8226, 3.29 µM (inactive); in the assay on HCT-15, 8.79 µM; in the assay on NCI-H522, 3.58 µM (inactive); with SK-MEL-28 it was 22.5 µM (inactive); in the assay on A549, 8.28 µM (inactive). Also, the GI50 with SW-620 was 7.45 µM (inactive); with SNB-75, 3.33 µM (inactive); in the assay on SNB-19, 20.1 µM (inactive); in the assay on CCRF-CEM, 10.2 µM (inactive); with OVCAR-3, 20.6 µM (inactive); in the assay with HT-29, 4.72 µM (inactive). The GI50 in the assay with HCT-116 is 2.51 µM (inactive); in the assay on EKVX, 18.9 µM (inactive).

For the compound `CC(=O)Nc1ccc(-c2nnc(SCC(=O)Nc3cccc(C)c3)o2)cc1`, the GI50 was 13.8 µM (inactive) with RPMI-8226; 8.97 µM in the assay with HCT-15; 4.4 µM (inactive) in the assay with NCI-H522; 13 µM (inactive) in the assay with HOP-92; 13.8 µM (inactive) in the assay with SK-MEL-28; 21.3 µM (inactive) in the assay with A549. The GI50 was 12.8 µM (inactive) with SW-620; 19.5 µM (inactive) with SNB-75; 4.93 µM (inactive) in the assay with SR; 6.62 µM (inactive) in the assay on CCRF-CEM; 11.7 µM (inactive) with OVCAR-3; 12.2 µM (inactive) in the assay on HT-29. Also, the GI50 in the assay on HCT-116 was 11.8 µM (inactive).

As for `COc1ccc2cc3c4cc(OC)c(OC)cc4ccn3c2c1`, the GI50 in the assay with A498, with NCI-H522, in the assay with HOP-92, in the assay with SK-MEL-28, with A549 and in the assay with SW-620 was > 100 µM (inactive) in each case. Further, the GI50 in the assay on SR, in the assay on SNB-19, with CCRF-CEM, with HT-29 and in the assay on EKVX was > 100 µM (inactive) each time.

`CC(C)CCCC(C)[C@H]1CCC2[C@@H]3CCC4Nc5c(cnn5-c5ccccc5)C[C@]4(C)C3CC[C@@]21C` (some centres not stated): the GI50 in the assay on A498 is 89.5 µM (inactive); in the assay on RPMI-8226, 3.61 µM (inactive); with HCT-15, 23.3 µM; with NCI-H522, 43.1 µM (inactive); in the assay on A549, 52.2 µM (inactive); in the assay on SW-620, 21.5 µM (inactive). Also, the GI50 is 2.88 µM (inactive) in the assay with SNB-75; 18.2 µM (inactive) in the assay on SNB-19; 7.45 µM (inactive) with CCRF-CEM; 32.5 µM (inactive) with OVCAR-3; 10.6 µM (inactive) with HT-29; 51.6 µM (inactive) with HCT-116. For the same compound, the GI50 in the assay on EKVX is 7.52 µM (inactive).

With `COc1cccc(/C=C\c2cc(OC)c(OC)c(OC)c2)c1`, the GI50 was 0.845 µM (active) in the assay with RPMI-8226; 0.693 µM in the assay with HCT-15; 0.375 µM (active) in the assay with NCI-H522; 22.6 µM (inactive) with HOP-92; 0.507 µM (active) in the assay on SK-MEL-28; 0.668 µM (active) in the assay on A549. The GI50 is 0.656 µM (active) in the assay on SW-620; 0.652 µM (active) in the assay with SNB-75; 0.498 µM (active) in the assay on SR; 2.18 µM (inactive) in the assay with SNB-19; 1.21 µM (inactive) in the assay on CCRF-CEM; 0.506 µM (active) in the assay on OVCAR-3. The GI50 in the assay with HT-29 is 0.423 µM (active); in the assay on HCT-116, 0.548 µM (active); in the assay on EKVX, 3.49 µM (inactive).

For `Cc1cc(C)c(C(=O)/C=C/c2ccccc2)c(C)c1`, the GI50 in the assay on RPMI-8226 was 29.8 µM (inactive); in the assay with HCT-15, 16.5 µM; in the assay on NCI-H522 it was 19.1 µM (inactive); with HOP-92 it was 19.1 µM (inactive); with SK-MEL-28, > 10 µM (inactive); with A549 it was 30.2 µM (inactive). The GI50 with SW-620 is 23 µM (inactive); in the assay with SNB-75 it was 40.9 µM (inactive); with SR it was 30.5 µM (inactive); in the assay with SNB-19, 28.5 µM (inactive); in the assay on CCRF-CEM, 25.4 µM (inactive); in the assay on OVCAR-3, > 10 µM (inactive). Further, the GI50 is 30.3 µM (inactive) in the assay with HT-29, 24.8 µM (inactive) with HCT-116 and 40.4 µM (inactive) with EKVX.
